Reference: patent US9187471B2, “Pyrido [4,3-b] indole and pyrido [3,4-b] indole derivatives and methods of use” (Medivation Technologies, Inc., priority 2010, dated 2015)

How the values were obtained:
[1] = target: T1, human recombinant histamine H1 receptor (Homo sapiens, UniProt P35367); test: Histamine H1 radioligand binding ([3H]Pyrilamine); settings: read-out: Histamine H1 Binding (1 μM), percent inhibition of specific binding; compound at 1 μM; 1.2 nM [3H]Pyrilamine
T1 construct: expressed in transfected cells; host or cells: CHO-K1
T1 sequence (P35367 whole entry): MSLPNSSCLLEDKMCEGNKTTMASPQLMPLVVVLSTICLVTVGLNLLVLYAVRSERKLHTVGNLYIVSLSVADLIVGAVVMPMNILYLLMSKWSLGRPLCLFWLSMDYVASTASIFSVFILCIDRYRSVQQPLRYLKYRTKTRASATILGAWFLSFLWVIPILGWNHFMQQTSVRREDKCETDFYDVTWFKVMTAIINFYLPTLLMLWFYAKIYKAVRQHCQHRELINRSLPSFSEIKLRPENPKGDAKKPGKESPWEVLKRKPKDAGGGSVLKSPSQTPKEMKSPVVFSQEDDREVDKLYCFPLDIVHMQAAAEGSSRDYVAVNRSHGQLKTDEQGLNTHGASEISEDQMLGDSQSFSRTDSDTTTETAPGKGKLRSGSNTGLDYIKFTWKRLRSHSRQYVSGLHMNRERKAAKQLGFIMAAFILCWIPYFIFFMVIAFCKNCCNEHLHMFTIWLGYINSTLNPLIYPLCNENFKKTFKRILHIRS
How it was run: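 Results expressed as percent inhibition of specific [3H]pyrilamine binding, counted on filters after washing. Receptor source: CHO-K1 cells expressing recombinant human H1, in modified Tris-HCl buffer (50 mM, pH 7.4; 2 mM MgCl2, 100 mM NaCl, 250 mM sucrose). 1 μM pyrilamine defined non-specific binding.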

[2] = target: T2, rat adrenergic α1A receptor (Rattus norvegicus, UniProt P43140); test: Adrenergic α1A radioligand binding ([3H]Prazosin); settings: read-out: Adrenergic (0.1 μM) a1A, percent inhibition of specific binding; compound at 0.1 μM; 0.25 nM [3H]Prazosin
T2 construct: rat adrenergic α1A receptor obtained from Wistar Rat submaxillary glands; from tissue; host or cells: Wistar rat submaxillary glands
T2 sequence (P43140 1-466): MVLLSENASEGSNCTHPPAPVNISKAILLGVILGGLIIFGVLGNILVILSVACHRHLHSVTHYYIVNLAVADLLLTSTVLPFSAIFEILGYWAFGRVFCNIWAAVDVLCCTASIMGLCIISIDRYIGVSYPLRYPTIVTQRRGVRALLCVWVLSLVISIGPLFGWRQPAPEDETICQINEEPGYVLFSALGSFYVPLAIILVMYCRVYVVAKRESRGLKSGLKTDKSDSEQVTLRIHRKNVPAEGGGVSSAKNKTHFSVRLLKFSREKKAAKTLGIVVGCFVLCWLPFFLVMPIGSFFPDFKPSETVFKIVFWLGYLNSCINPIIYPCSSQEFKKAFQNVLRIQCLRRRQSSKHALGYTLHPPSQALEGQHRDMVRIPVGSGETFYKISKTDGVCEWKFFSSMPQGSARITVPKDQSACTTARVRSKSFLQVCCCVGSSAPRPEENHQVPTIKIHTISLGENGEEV
How it was run: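 Wistar rat submaxillary gland receptor in 50 mM Tris-HCl pH 7.4 with 0.5 mM EDTA, incubated with compound and 0.25 nM [3H]Prazosin for 60 min at 25 °C.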

[3] = target: T3, human recombinant adrenergic α2C receptor (Homo sapiens, UniProt P18825); test: Adrenergic α2C radioligand binding ([3H]MK-912); settings: read-out: Adrenergic (0.1 μM) a2C, percent inhibition of specific binding; compound at 0.1 μM; 1 nM [3H]MK-912
T3 construct: expressed in transfected cells; host or cells: insect Sf9 cells
T3 sequence (P18825 1-462): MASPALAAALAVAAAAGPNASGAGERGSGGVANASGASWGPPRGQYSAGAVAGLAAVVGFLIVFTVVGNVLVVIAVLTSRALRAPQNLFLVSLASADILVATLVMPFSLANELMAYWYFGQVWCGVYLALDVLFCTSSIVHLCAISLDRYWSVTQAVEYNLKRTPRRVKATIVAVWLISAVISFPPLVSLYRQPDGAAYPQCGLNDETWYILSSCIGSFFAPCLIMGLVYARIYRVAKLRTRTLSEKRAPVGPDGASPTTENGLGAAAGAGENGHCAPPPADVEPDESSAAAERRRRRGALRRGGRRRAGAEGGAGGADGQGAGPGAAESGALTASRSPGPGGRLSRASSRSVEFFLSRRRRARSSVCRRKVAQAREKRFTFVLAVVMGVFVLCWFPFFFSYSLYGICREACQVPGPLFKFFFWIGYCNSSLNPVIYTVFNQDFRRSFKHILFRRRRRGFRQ
How it was run: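 Membranes from Sf9 cells expressing the human receptor, in 50 mM Tris-HCl pH 7.4 with 12.5 mM MgCl2 and 2 mM EDTA, incubated with compound and 1 nM [3H]MK-912 for 60 min at 25 °C. Non-specific binding defined with 10 μM WB-4101. Filter-bound radioactivity counted; percent inhibition of specific binding reported.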

[4] = target: T4, human recombinant serotonin (5-Hydroxytryptamine) 5-HT2C receptor (Homo sapiens, UniProt P28335); test: Serotonin 5-HT2C radioligand binding ([3H]Mesulergine); settings: compound at 0.1 μM; read-out: Inhibition of ligand binding, Serotonin 5-HT2C (percent inhibition of specific binding)
T4 construct: expressed in transfected cells; host or cells: CHO-K1
T4 sequence (P28335 33-458): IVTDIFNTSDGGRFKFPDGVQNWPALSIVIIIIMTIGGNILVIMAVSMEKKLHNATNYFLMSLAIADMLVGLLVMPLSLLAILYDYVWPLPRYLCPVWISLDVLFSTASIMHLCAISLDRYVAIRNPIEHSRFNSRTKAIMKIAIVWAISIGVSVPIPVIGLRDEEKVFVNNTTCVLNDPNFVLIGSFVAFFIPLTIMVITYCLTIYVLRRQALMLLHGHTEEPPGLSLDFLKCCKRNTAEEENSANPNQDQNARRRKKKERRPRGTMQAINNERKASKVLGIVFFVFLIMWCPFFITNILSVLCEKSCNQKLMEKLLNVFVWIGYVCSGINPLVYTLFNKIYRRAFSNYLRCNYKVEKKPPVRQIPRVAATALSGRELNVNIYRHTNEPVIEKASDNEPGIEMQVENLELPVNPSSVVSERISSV
Protocol: Compounds of the invention were incubated with 1 nM [^3H]Mesulergine for 60 min at 25° C. Non-specific binding was estimated in the presence of 1 μM Mianserin. Receptor proteins were filtered and washed, the filters were then counted to determine [^3H]Mesulergine specifically bound.

[5] = target: T5, human recombinant serotonin (5-Hydroxytryptamine) 5-HT6 receptor (Homo sapiens, UniProt P50406); test: Serotonin 5-HT6 radioligand binding ([3H]LSD); settings: compound at 0.1 μM; read-out: Inhibition of ligand binding, Serotonin 5-HT6 (percent inhibition of specific binding)
T5 construct: expressed in transfected cells; host or cells: HeLa
T5 sequence (P50406 whole entry): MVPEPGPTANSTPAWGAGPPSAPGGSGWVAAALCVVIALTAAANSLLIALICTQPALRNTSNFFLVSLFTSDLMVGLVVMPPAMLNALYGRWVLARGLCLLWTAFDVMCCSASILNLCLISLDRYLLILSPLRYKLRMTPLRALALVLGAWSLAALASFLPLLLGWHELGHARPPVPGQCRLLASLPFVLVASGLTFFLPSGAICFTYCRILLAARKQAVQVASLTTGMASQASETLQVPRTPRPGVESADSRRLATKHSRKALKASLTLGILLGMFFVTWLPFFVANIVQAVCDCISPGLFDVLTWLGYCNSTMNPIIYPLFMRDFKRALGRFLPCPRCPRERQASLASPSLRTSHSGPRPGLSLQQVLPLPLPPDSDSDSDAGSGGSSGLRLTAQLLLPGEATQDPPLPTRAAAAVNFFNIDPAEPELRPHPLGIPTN
Text: Receptor proteins were filtered and washed, the filters were then counted to determine [3H]LSD specifically bound.

| Compound | inhibition at 1 µM [1] [%] | inhibition at 0.1 µM [2] [%] | inhibition at 0.1 µM [3] [%] | inhibition at 0.1 µM [4] [%] | inhibition at 0.1 µM [5] [%] |
| --- | --- | --- | --- | --- | --- |
| Cc1ccc2c(c1)c1c(n2-c2ccc(-c3ccnn3C)cn2)CCN(C)C1 [Compound No. 146, 2,8-dimethyl-5-(5-(1-methyl-1H-pyrazol-5-yl)pyridin-2-yl)-2,3,4,5-tetrahydro-1H-pyrido[4,3-b]indole] | 8 | 33 | -1 | 30 | -17 |
| Cc1ccc2c(c1)c1c(n2-c2cscc2-c2cnc(N(C)C)nc2)CCN(C)C1 [Compound 40] | 15 | 43 | -17 | 35 | 19 |
| Cc1ccc2c(c1)c1c(n2-c2ccc(-c3c(C)noc3C)cn2)CCN(C)C1 [Compound No. 137, 4-(6-(2,8-dimethyl-3,4-dihydro-1H-pyrido[4,3-b]indol-5(2H)-yl)pyridin-3-yl)-3,5-dimethylisoxazole] | 3 | 17 | -1 | 75 | 2 |
| Cc1ccc2c(c1)c1c(n2-c2cccc(-c3ccnn3C)c2)CCN(C)C1 [Compound No. 66, 2,8-dimethyl-5-(3-(1-methyl-1H-pyrazol-5-yl)phenyl)-2,3,4,5-tetrahydro-1H-pyrido[4,3-b]indole] | 43 | 1 | 8 | 55 | 30 |
| Cc1ccc2c(c1)c1c(n2-c2cscc2-c2ccnn2C)CCN(C)C1 [Compound No. 150] | 22 | 36 | 10 | 64 | 14 |
| Cc1ccc2c(c1)c1c(n2-c2cscc2-c2cnn(C)c2)CCN(C)C1 [Compound 30] | 23 | 62 | 10 | 84 | 33 |
| Cc1ccc2c(c1)c1c(n2-c2ccccc2-c2ccnn2C)CCN(C)C1 [Compound 32] | 22 | 27 | 20 | 50 | 5 |
| Cc1ccc2c(c1)c1c(n2-c2cccc3ccncc23)CCN(C)C1 [Compound 58, 5-(isoquinolin-8-yl)-2,8-dimethyl-2,3,4,5-tetrahydro-1H-pyrido[4,3-b]indole] | 31 | 3 | -1 | 81 | 21 |
| Cc1ccc2c(c1)c1c(n2-c2ccc(-c3cnn(C)c3)cn2)CCN(C)C1 [Compound No. 134, 2,8-dimethyl-5-(5-(1-methyl-1H-pyrazol-4-yl)pyridin-2-yl)-2,3,4,5-tetrahydro-1H-pyrido[4,3-b]indole] | 6 | -2 | -2 | 96 | -2 |
